From patent publication US7973024B2, “24-sulfoximine vitamin D3 compounds” (Cyctochroma Inc., priority 2002, dated 2011)

Experiments:
SCC-25 cells = experiment: [3H]-thymidine proliferation assay with SCC-25 cells; assay type: cell-based; details: together with calcitriol, three days, [3H]-thymidine 6 h
Description: 1. Preparation of Cell Suspension • When SCC-25 cells were 70-80% confluent, aspirated media. Washed the cells with 1×PBS. Trypsinized with trypsin-EDTA from the plate, collected cells from the tissue culture flask, centrifuged (500×g, 5 min) and resuspended in media.
2. Cell Plating. • Counted the cells and adjusted the cell density to 10,000/ml. Added 200 μl per well in a 96 well plate. Incubated plate for 24 h at 37° C. in a humidified atmosphere plus 5% CO2. Aspirated used media and replaced with 150 μl per well with media.
3. Compound Addition. • Added 25 μl of 1α,25(OH)2D3 (final concentration 10^−6M, 10^−7 M, 10^−8 M, M, 10^−10 M, 10^−11 M) into each designated well. Added 25 μl of substrate (final concentration 10^−7 M, 5×10^−8 M, 10^−8 M or 10^−9 M) into each designated well. Incubated plates for 3 days at 37° C. in a humidified atmosphere plus 5% CO2.
4. ^3H-Thymidine Incorporation. • Added ^3H-thymidine at 0.02 μCi per well and incubated at 37° C. in a humidified atmosphere plus 5% CO2 for 6 h.
5. Plate Harvesting. • Aspirated all media and washed cells with 1×PBS. Trypsinized cells for 30 min at 37° C. in a humidified atmosphere plus 5% CO2. Harvested cells onto a 96 well filter plate (Millipore) using a Tomtec Cell Harvestor, according to manufacturers instructions.
6. Scintillation Counting. • Added 25 μl of scintillation fluid per well. Counted the plate using a scintillation counter.

CYP27A1 = target: T1, CYP27A1 (Homo sapiens, UniProt Q02318); experiment: CYP27A1 enzyme assay; assay type: biochemical
T1 sequence (Q02318 34-531): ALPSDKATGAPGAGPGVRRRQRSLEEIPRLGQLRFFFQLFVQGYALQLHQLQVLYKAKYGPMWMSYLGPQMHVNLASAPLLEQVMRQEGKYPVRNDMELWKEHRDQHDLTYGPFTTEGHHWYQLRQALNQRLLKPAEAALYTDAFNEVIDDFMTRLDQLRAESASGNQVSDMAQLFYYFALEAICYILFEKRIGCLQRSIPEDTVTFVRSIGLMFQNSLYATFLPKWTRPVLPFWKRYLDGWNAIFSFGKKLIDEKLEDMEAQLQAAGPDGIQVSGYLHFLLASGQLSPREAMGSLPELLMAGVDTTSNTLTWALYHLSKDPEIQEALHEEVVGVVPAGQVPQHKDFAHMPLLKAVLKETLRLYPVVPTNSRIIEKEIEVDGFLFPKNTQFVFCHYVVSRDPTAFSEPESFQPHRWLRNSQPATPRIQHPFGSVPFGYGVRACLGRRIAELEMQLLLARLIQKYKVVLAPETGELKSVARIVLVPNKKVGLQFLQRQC

Compound	inhibition of proliferation of SCC-25 cells (SCC-25 cells)	IC50 (CYP27A1)
C=C1/C(=C\C=C2/CCC[C@]3(C)[C@@H]([C@H](C)CCS(=N)(=O)c4ccccc4)CC[C@@H]23)C[C@@H](O)C[C@@H]1O (single isomer, unassigned) [I(a)]	act to inhibit the proliferation	
C=C1/C(=C\C=C2/CCC[C@]3(C)[C@@H]([C@H](C)CCS(=O)(=NC)c4ccccc4)CC[C@@H]23)C[C@@H](O)C[C@@H]1O (single isomer, unassigned) [I(e)]	act to inhibit the proliferation	> 1000 nM
C=C1/C(=C\C=C2/CCC[C@]3(C)[C@@H]([C@H](C)CCS(=O)(=NC)c4ccccc4)CC[C@@H]23)C[C@@H](O)C[C@@H]1O (single isomer, unassigned) [I(g)]	act to inhibit the proliferation	> 1000 nM
C[C@H](CCS(=N)(=O)c1ccccc1)[C@H]1CC[C@H]2/C(=C/C=C3C[C@@H](O)C[C@H](O)C3)CCC[C@]12C (single isomer, unassigned) [I(i), 24-Phenyl Sulfoximine 19-Nor-Vitamin-D3]	act to inhibit the proliferation	
